Structures are written as SMILES. A value given as a limit tells only on which side of the number the result lay.

The results in this text go back to patent publication US8163763B2, “Pyrimidine compounds, compositions and methods of use” (Genentech, Inc., priority 2008, dated 2012).

For the test, the target named is mTOR kinase (purified recombinant mTOR(1360-2549)+GBL) (Homo sapiens, UniProt P42345). In words: In vitro mTOR kinase assay (TR-FRET). Type of test: biochemical. The conditions noted are these: class of Ki in the mTOR kinase assay; read-out: mTOR Activity Level. An excerpt:
a. In vitro mTOR Kinase Assay
The reaction is stopped by an addition of a Terbium-labeled phospho-specific antibody, e.g., Tb-labeled anti-p4E-BP1 T37/T46, (Invitrogen, product #PR8835A), EDTA, and TR-FRET buffer solution (Invitrogen, Product #PR3756B). Product formation is detected by way of time-resolved fluorescence resonance energy transfer (TR-FRET), which occurs when the phosphorylated substrate and labeled antibody are in close proximity due to phospho-specific binding. Enzymatic activity is measured as an increase in TR-FRET signal using a Perkin Elmer Envision plate reader.
Compound activity is tested in 10 point dose curves starting at the highest final concentration of 10 uM. They are serially diluted in 100% DMSO prior to further dilution with assay buffer. […] 8 μL of solution containing 2 nM Tb-anti-p4E-BP1 antibody & 10 mM EDTA diluted TR-FRET buffer is then added and incubated for 30 minutes to stop the reaction. The plate is scanned with the Envision plate reader. Ki values are calculated in Assay Explorer using the Morrison ATP-competitive tight binding equation for Ki apparent determination.
(TR-FRET usually uses a lanthanide donor and a delayed reading to cut background.)

mTOR kinase (purified recombinant mTOR(1360-2549)+GBL), sequence (P42345 1360-2549): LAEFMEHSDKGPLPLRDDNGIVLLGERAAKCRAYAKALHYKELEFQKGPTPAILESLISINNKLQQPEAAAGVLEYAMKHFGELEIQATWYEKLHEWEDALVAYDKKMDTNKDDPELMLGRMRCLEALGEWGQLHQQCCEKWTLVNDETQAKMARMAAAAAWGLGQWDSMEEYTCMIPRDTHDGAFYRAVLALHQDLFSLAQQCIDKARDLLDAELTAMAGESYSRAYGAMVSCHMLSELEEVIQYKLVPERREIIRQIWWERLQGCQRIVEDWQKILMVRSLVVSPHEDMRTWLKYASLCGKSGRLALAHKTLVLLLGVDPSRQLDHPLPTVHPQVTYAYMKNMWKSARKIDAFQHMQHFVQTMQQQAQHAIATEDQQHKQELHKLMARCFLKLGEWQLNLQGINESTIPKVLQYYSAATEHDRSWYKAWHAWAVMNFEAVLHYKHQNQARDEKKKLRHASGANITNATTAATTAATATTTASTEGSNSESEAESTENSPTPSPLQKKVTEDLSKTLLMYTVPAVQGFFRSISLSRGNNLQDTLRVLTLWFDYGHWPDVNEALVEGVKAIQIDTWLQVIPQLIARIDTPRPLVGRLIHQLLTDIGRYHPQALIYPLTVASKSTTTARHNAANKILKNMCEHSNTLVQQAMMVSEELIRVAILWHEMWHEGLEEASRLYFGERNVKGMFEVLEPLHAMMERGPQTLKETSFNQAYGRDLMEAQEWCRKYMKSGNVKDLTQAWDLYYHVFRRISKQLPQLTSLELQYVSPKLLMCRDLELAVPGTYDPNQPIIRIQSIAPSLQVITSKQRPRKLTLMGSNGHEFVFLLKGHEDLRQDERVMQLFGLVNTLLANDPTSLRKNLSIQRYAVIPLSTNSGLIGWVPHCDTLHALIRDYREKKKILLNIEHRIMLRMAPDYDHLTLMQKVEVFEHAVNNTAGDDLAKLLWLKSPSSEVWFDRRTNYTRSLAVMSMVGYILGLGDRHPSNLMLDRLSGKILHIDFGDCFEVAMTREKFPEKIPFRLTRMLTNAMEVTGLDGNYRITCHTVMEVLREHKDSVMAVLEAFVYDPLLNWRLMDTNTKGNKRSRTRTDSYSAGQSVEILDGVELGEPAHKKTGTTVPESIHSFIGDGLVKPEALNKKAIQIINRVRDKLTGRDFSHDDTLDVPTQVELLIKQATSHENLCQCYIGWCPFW
mTOR kinase (purified recombinant mTOR(1360-2549)+GBL), sequence (Q9BVC4 whole entry partner): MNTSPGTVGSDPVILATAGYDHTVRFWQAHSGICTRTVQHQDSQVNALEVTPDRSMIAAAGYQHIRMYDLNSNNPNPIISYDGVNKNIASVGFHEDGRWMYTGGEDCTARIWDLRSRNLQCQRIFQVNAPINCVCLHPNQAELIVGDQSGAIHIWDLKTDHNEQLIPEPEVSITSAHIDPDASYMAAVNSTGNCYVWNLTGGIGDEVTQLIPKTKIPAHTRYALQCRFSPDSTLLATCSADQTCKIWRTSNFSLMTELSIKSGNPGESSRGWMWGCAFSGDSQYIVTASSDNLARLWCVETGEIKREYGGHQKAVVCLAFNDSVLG

For the compound `CS(=O)(=O)Nc1ccc(-c2nc3c(c(N4CCOCC4)n2)CN(c2ncccn2)C3)cc1`, the Ki is 100 to 5000 nM.
For `CCNC(=O)Nc1ccc(-c2nc3c(c(N4CCOCC4)n2)CCN(C(=O)c2cnco2)C3)cc1` the value was under 100 nM.
For the compound `CC(=O)Nc1cccc(-c2nc3c(c(N4CCOCC4)n2)CN(c2ncccn2)C3)c1`, the Ki is 100 to 5000 nM.
On to `O=C(Nc1ccc(-c2nc3c(c(N4CCOCC4)n2)CN(c2ncccn2)C3)cc1)NC1CCCC1` [drawing 572], for which the Ki is under 100 nM.
As for `CCNC(=O)Nc1ccc(-c2nc3c(c(N4CCOCC4)n2)CN(Cc2ccccc2)C3)cc1`, the Ki is under 100 nM.
As for `CCCNC(=O)Nc1ccc(-c2nc3c(c(N4CCOCC4)n2)CCN(c2ncccn2)C3)cc1`, the Ki is 100 to 5000 nM.
